Common to all, as to assay: NCI-60 cell line screen, 48 h
Experiment [1] deals with ACHN renal.
The subject of experiment [2] is COLO 205 colon.
Experiment [3] concerns EKVX NSCLC.
The test system of experiment [4] is HOP-62 NSCLC.
In experiment [5] the test system is HT29 colon.
Experiment [6] concerns IGROV1 ovarian.
The subject of experiment [7] is M14 melanoma.
Experiment [8] deals with NCI-H460 lung.
Experiment [9] relates to OVCAR-8 ovarian.
For experiment [10], the system named is SF-268 CNS.
Experiment [11] deals with SF-295 CNS.
Experiment [12] deals with SF-539 CNS.
Experiment [13] deals with SK-MEL-28 melanoma.
Experiment [14] has as its system SR leukemia.
The subject of experiment [15] is UACC-257 melanoma.
Experiment [16] deals with UACC-62 melanoma.

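The compound was tested at five concentrations on cells cultured in 96-well plates, with a 48-hour exposure period. TGI marks complete inhibition of growth.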 A value given as a limit tells only on which side of the number the result lay.

As to `C#CC(C)(C)OCCCCOc1cc(O)c2c(=O)c3ccccc3n(C)c2c1`, the TGI in [1] is greater than 100 µM; in experiment [2], 80.4 µM; in experiment [3], greater than 100 µM; in [4], greater than 100 µM; in experiment [5], 45.7 µM; in experiment [6] it was greater than 100 µM. In addition, the TGI in [7], in [8], in experiment [9], in [10], in experiment [11] and in experiment [12] was greater than 100 µM in each case. Moreover, the TGI in experiment [13], in experiment [14], in experiment [15] and in experiment [16] was greater than 100 µM each time.
`CC12C3CC4C5CC(C(C53)[C@@H]1NCc1ccccc1)C42` (stereo partly specified): the TGI was greater than 100 µM in experiment [1]; 75.3 µM in [2]; greater than 100 µM in experiment [3]; greater than 100 µM in experiment [4]; greater than 100 µM in [5]; greater than 100 µM in [6]. The TGI in [7], in experiment [8], in experiment [9], in experiment [10], in experiment [11] and in experiment [12] was greater than 100 µM in each case. The TGI in experiment [13], in [14], in experiment [15] and in experiment [16] was greater than 100 µM each time.
Consider `C=CCCCN1CCCCC1=S`, for which the TGI in experiment [1], in experiment [2], in experiment [3], in experiment [4], in experiment [5] and in experiment [6] was greater than 100 µM each time. Further, the TGI in experiment [7], in experiment [8], in experiment [9], in [11], in experiment [12] and in experiment [13] was greater than 100 µM in each case. The TGI in experiment [14], in [15] and in experiment [16] was greater than 100 µM each time.
As for `CN1N=C2c3ccccc3OC(c3ccccc3)[C@H]2C1c1ccccc1` (stereo partly specified), the TGI in experiment [1], in experiment [2], in experiment [3], in [4], in experiment [5] and in [6] was greater than 100 µM each time. In addition, the TGI in experiment [7], in experiment [8], in experiment [9], in [10], in [11] and in experiment [12] was greater than 100 µM in each case. Also, the TGI in experiment [13], in experiment [14], in experiment [15] and in experiment [16] was greater than 100 µM in each case.
As to `N#Cc1ccccc1NC(=O)C(=O)C(C(=O)c1ccncc1)C1OC(=O)c2ccccc21` (stereo unspecified), the TGI in [1], in experiment [2], in experiment [3], in [4], in experiment [5] and in experiment [6] was greater than 100 µM in each case. Further, the TGI in experiment [7], in experiment [8], in experiment [9], in experiment [10], in [11] and in [12] was greater than 100 µM in each case. The TGI in [13], in [14], in experiment [15] and in experiment [16] was greater than 100 µM throughout.
In the case of `CCc1ccc(Cc2ccc(CC)c(NC(=O)C(=O)C3NC(=S)NC3=O)c2CC)c(CC)c1NC(=O)C(=O)C1NC(=S)NC1=O` (stereo unspecified), the TGI in [1], in [2], in experiment [3], in experiment [4], in experiment [6] and in experiment [7] was greater than 100 µM each time. The TGI in [8], in experiment [9], in experiment [10], in experiment [12], in experiment [13] and in [15] was greater than 100 µM throughout. Moreover, in experiment [16], the TGI was greater than 100 µM.
As to `CSc1ccc2c(cc1=O)C(NC(=O)c1ccccc1)CCc1cc(O)c(O)c(O)c1-2` (stereo unspecified), the TGI in experiment [1] was greater than 100 µM; in experiment [2], 73.4 µM; in [3] it was greater than 100 µM; in experiment [4] it was 57.8 µM; in [5], greater than 100 µM; in experiment [6], 66.1 µM. Moreover, the TGI in experiment [7] is 35.7 µM; in experiment [8], 40.3 µM; in [9], greater than 100 µM; in experiment [10] it was greater than 100 µM; in experiment [11], greater than 100 µM; in experiment [12], 10.6 µM. The TGI in [13] was greater than 100 µM; in [15], greater than 100 µM; in experiment [16], 25.7 µM.
On to `Cc1cccc(N=Cc2ccc(N(CCC#N)S(=O)(=O)c3ccccc3)cc2C)c1`, for which the TGI in [1], in experiment [2], in experiment [3], in experiment [4], in experiment [5] and in experiment [6] was greater than 100 µM throughout. Besides, the TGI in experiment [7], in experiment [9], in experiment [10], in experiment [11], in experiment [12] and in experiment [13] was greater than 100 µM in each case. In addition, the TGI in experiment [15] and in experiment [16] was greater than 100 µM in each case.
Take `O=C(O[C@H]1[C@@H]2C=CO[C@@H](OC3OC(CO)C(O)C(O)C3O)[C@@H]2[C@@]2(CO)O[C@@H]12)c1ccc(O)c(O)c1` (stereo partly specified): the TGI in [1], in [2], in [3], in [4], in experiment [5] and in experiment [6] was greater than 100 µM each time. Further, the TGI in experiment [7], in experiment [8], in [9], in experiment [10], in experiment [11] and in experiment [12] was greater than 100 µM in each case. The TGI in [13], in [15] and in experiment [16] was greater than 100 µM in each case.

The values are drawn from PubChem BioAssay (NCI).
